Source: BindingDB's records for doi:10.1021/acs.jmedchem.8b01300 (Emory University School of Medicine, 2019)

Legend:
[1] = target: RNA-directed RNA polymerase (Hepacivirus hominis, UniProt Q8JXU8); experiment: Inhibition of NS5B polymerase in wild type HCV genotype 1b infected in human Huh7 replicon cells after 5 days by RT-PCR assay
[2] = Inhibition of NS5B polymerase in wild type HCV genotype 1b infected in human Huh7 replicon cells after 5 days by RT-PCR assay

EC50 [2]	Structure (SMILES)	EC50 [1]
–	C[C@@]1(O)[C@H](O)[C@@H](CO)O[C@H]1n1ccc(N)nc1=O	2.8 µM
–	CC(C)OC(=O)[C@H](C)NP(=O)(OC[C@H]1O[C@@H](n2ccc(N)nc2=O)[C@](F)(Br)[C@H]1O)Oc1ccccc1 (stereo not given in full)	0.6 µM
> 10 µM	Nc1nc2c(ncn2[C@@H]2O[C@H](CO)[C@@H](O)[C@]2(F)Br)c(=O)[nH]1	–
–	Nc1ccn([C@@H]2O[C@H](CO)[C@@H](O)[C@]2(F)Br)c(=O)n1	4 µM
–	Nc1ncnc2c1ncn2[C@@H]1O[C@H](CO)[C@H](O)[C@@]1(F)Br	> 10 µM
